Laboratory results from patent US10697019B2, “Method of diagnosis and prognosis” (IMPERIAL COLLEGE INNOVATIONS LIMITED, priority 2011, dated 2020).
[ ]: non-standard residue; d: D form. The star is where a group is joined. Cbz = O=C(OCc1ccccc1)*

System: panel of 29 cancer cell lines
Experiment: [3H]thymidine incorporation assay of Z-DTP-induced killing, correlated with Gadd45β mRNA expression (qRT-PCR)
Assay type: cell-based
Conditions: 10 μM Z-DTP2 for 144 hrs, Pearson correlation p<0.01
Excerpt: The significance of the correlation co-efficient between the two parameters is p<0.01 (Pearson correlation as calculated by GraphPad software).
For example, primary cell from multiple myeloma patients can be analysed for levels of Gadd45β expression, and patients with high levels of this expression can be deemed as those who will receive the most benefit from treatment with Gadd45β inhibitors.
In order to determine the basis for the different sensitivity of tumour cell lines to Z-DTP-induced killing, we measured levels of Gadd45β expression in a panel of 29 tumour cell lines or different tissues of origin by using quantitative real-time polymerase chain reaction (qRT-PCT) and correlated these levels with the degree of susceptibility of these cell lines to the cytotoxic activity of Z-DTPs. […] Experimental Ct values were normalized to β-actin, and relative mRNA expression calculated versus a reference sample (i.e. mRNA from HEK-293T cells). The sensitivity of cancer cell lines to Z-DTP-induced killing was analysed as described above by performing [^3H]thymidine incorporation assays after treatment of the cells with 10 μM of Z-DTP2 for 144 hrs. […] The significance of the correlation coefficient between the 2 parameters' domain was calculated by Pearson correlation, which quantifies the association between two variables, using the GraphPad software.

Z-DTP2: tetrapeptide Tyr-Glu-Arg-Phe, amino acids in the D configuration, NH2 group at the C terminal, benzyloxycarbonyl group at the N terminal; specific Gadd45β inhibitor (Cbz-[dY][dE][dR][dF]-NH2)
cancer cell sensitivity to Z-DTP-induced killing versus levels of endogenous Gadd45β expression: correlates with a very high degree of statistical significance
